# Test results published in patent US20230113011A1, “METHODS OF TREATING ILLNESSES CAUSED BY CORONAVIRUS, SWINE FLU AND AVIAN FLU” (CMTx Biotech Inc., priority 2020, published 2023).
# Conditions: in vivo
structure (smiles),measurement,value
"NC(=O)C1=C(O)C[C@@H]2C[C@@H]3Cc4cccc(O)c4C(=O)C3=C(O)[C@]2(O)C1=O [CMT-3, 6-demethyl-6-deoxy-4-dedimethylaminotetracycline]",plasma concentrations in humans,about 1.0 μg/ml
